In brackets after ≈: the same amount, converted by molar mass.
Tests used:
Test in all cases: In vitro antibacterial evaluation: minimum inhibitory concentration (MIC), broth dilution method
Type in all cases: cell-based
Staphylococcus sp. = conditions: for MIC Staphylococcus aureus (ATCC 29213): strain ATCC 29213; for MIC Staphylococcus aureus (GC 1131): strain GC 1131; for MIC Staphylococcus aureus (GC 3051): strain GC 3051; for MIC Staphylococcus aureus (GC 3053): strain GC 3053; for MIC Staphylococcus aureus (GC 4541): strain GC 4541; for MIC Staphylococcus aureus (GC 4542): strain GC 4542; for MIC Staphylococcus aureus-SMITH (GC 4543): strain GC 4543; for MIC Staphylococcus aureus (GC 4544): strain GC 4544; for MIC Staphylococcus aureus (GC 4545): strain GC 4545; for MIC Staphylococcus haemolyticus (GC 4546): strain GC 4546; for MIC Coagulase Negative Staphylococcus (GC 4547): strain GC 4547; for MIC Coagulase Negative Staphylococcus (GC 4548): strain GC 4548; for MIC Coagulase Negative Staphylococcus (GC 4549): strain GC 4549; for MIC Coagulase Negative Staphylococcus (GC 4551): strain GC 4551; for MIC Coagulase Negative Staphylococcus (GC 6257): strain GC 6257
Summary of the method: (§1)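 First, organisms are seeded at 5×10^5 CFU/mL into Muller-Hinton II […]. Next, antibiotic is applied across 64-0.06 μg/mL by broth dilution (NCCLS M7-A2). Finally, the lowest inhibitory concentration is recorded as MIC.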

Enterococcus sp. = conditions: 18 hours at 35° C.
Summary of the method: as §1

Streptococcus sp. = conditions: 18 hours at 35° C.
Summary of the method: as §1

Escherichia coli = conditions: 18 hours at 35° C.
Summary of the method: as §1

[1] = Enterococcus faecalis (ATCC 29212)
[2] = Enterococcus faecalis (GC 2242)
[3] = Enterococcus faecalis (GC 2691)
[4] = Enterococcus faecalis (GC 3059)
[5] = Enterococcus faecalis (GC 4552)
[6] = Enterococcus faecalis (GC 4553)
[7] = Enterococcus faecalis (GC 4554)
[8] = Enterococcus faecalis (GC 6189)
[9] = broth dilution, inoculum 5×10^5 CFU/mL
[10] = Streptococcus agalactiae (GC 4564)
[11] = Streptococcus pneumoniae (ATCC 6301)
[12] = Streptococcus pneumoniae (GC 1894)
[13] = Streptococcus pneumoniae (GC 4565)
[14] = Streptococcus pyogenes (GC 4563)

CC(c1ccccc1)C1NC(=O)CNC(=O)C(CO)NC(=O)C(C(O)C2CNC(=N)N2C2OC(CO)C(O)C(O)C2O)NC(=O)C(C(O)C2CNC(=N)N2)NC(=O)C(Cc2ccc(OC3OC(CO)C(OC4OC5COC6(OC5C(O)C4O)C4CCCC6CCC4)C(O)C3O)cc2)NC1=O (stereo not drawn) [Example 212, Cyclo[glycyl-β-methylphenylalanyl-O-[4-O-(4,6-O-bicyclo[3.3.1]non-9-ylidenehexopyranosyl]hexopyranosyl]tyrosyl-3-(2-iminoimidazolidin-4-yl)seryl-3-(3-hexopyranosyl-2-iminoimidazolidin-4-yl)serylseryl]]
MIC Staphylococcus aureus (ATCC 29213) (Staphylococcus sp.): 2 µg/mL (≈ 1.41 µM)
MIC Staphylococcus aureus (GC 1131) (Staphylococcus sp.): 4 µg/mL (≈ 2.83 µM)
MIC Staphylococcus aureus (GC 3051) (Staphylococcus sp.): 2 µg/mL (≈ 1.41 µM)
MIC Staphylococcus aureus (GC 3053) (Staphylococcus sp.): 4 µg/mL (≈ 2.83 µM)
MIC Staphylococcus aureus (GC 4541) (Staphylococcus sp.): 2 µg/mL (≈ 1.41 µM)
MIC Staphylococcus aureus (GC 4542) (Staphylococcus sp.): 2 µg/mL (≈ 1.41 µM)
MIC Staphylococcus aureus-SMITH (GC 4543) (Staphylococcus sp.): 2 µg/mL (≈ 1.41 µM)
MIC Staphylococcus aureus (GC 4544) (Staphylococcus sp.): 4 µg/mL (≈ 2.83 µM)
MIC Staphylococcus aureus (GC 4545) (Staphylococcus sp.): 2 µg/mL (≈ 1.41 µM)
MIC Staphylococcus haemolyticus (GC 4546) (Staphylococcus sp.): 2 µg/mL (≈ 1.41 µM)
MIC Coagulase Negative Staphylococcus (GC 4547) (Staphylococcus sp.): 2 µg/mL (≈ 1.41 µM)
MIC Coagulase Negative Staphylococcus (GC 4548) (Staphylococcus sp.): 2 µg/mL (≈ 1.41 µM)
MIC Coagulase Negative Staphylococcus (GC 4549) (Staphylococcus sp.): 2 µg/mL (≈ 1.41 µM)
MIC Coagulase Negative Staphylococcus (GC 4551) (Staphylococcus sp.): 2 µg/mL (≈ 1.41 µM)
MIC Coagulase Negative Staphylococcus (GC 6257) (Staphylococcus sp.): 1 µg/mL (≈ 0.706 µM)
MIC Enterococcus avium (GC 4558) (Enterococcus sp.; Enterococcus avium (GC 4558)): 4 µg/mL (≈ 2.83 µM)
MIC Enterococcus faecalis (ATCC 29212) (Enterococcus sp.; [1]): 8 µg/mL (≈ 5.65 µM)
MIC Enterococcus faecalis (GC 2242) (Enterococcus sp.; [2]): 8 µg/mL (≈ 5.65 µM)
MIC Enterococcus faecalis (GC 2691) (Enterococcus sp.; [3]): 8 µg/mL (≈ 5.65 µM)
MIC Enterococcus faecalis (GC 3059) (Enterococcus sp.; [4]): 8 µg/mL (≈ 5.65 µM)
MIC Enterococcus faecalis (GC 4552) (Enterococcus sp.; [5]): 8 µg/mL (≈ 5.65 µM)
MIC Enterococcus faecalis (GC 4553) (Enterococcus sp.; [6]): 8 µg/mL (≈ 5.65 µM)
MIC Enterococcus faecalis (GC 4554) (Enterococcus sp.; [7]): 8 µg/mL (≈ 5.65 µM)
MIC Enterococcus faecalis (GC 6189) (Enterococcus sp.; [8]): 8 µg/mL (≈ 5.65 µM)
MIC Enterococcus faecium (GC 2243) (Enterococcus sp.; Enterococcus faecium (GC 2243)): 8 µg/mL (≈ 5.65 µM)
MIC Enterococcus faecium (GC 4556) (Enterococcus sp.; Enterococcus faecium (GC 4556)): 8 µg/mL (≈ 5.65 µM)
MIC Enterococcus faecium (GC 4557) (Enterococcus sp.; Enterococcus faecium (GC 4557)): 4 µg/mL (≈ 2.83 µM)
MIC Enterococcus avium (GC 4558) (Enterococcus sp.; [9]): 4 µg/mL (≈ 2.83 µM)
MIC Enterococcus faecalis (ATCC 29212) (Enterococcus sp.; [9]): 8 µg/mL (≈ 5.65 µM)
MIC Enterococcus faecalis (GC 2242) (Enterococcus sp.; [9]): 8 µg/mL (≈ 5.65 µM)
MIC Enterococcus faecalis (GC 2691) (Enterococcus sp.; [9]): 8 µg/mL (≈ 5.65 µM)
MIC Enterococcus faecalis (GC 3059) (Enterococcus sp.; [9]): 8 µg/mL (≈ 5.65 µM)
MIC Enterococcus faecalis (GC 4552) (Enterococcus sp.; [9]): 8 µg/mL (≈ 5.65 µM)
MIC Enterococcus faecalis (GC 4553) (Enterococcus sp.; [9]): 8 µg/mL (≈ 5.65 µM)
MIC Enterococcus faecalis (GC 4554) (Enterococcus sp.; [9]): 8 µg/mL (≈ 5.65 µM)
MIC Enterococcus faecalis (GC 6189) (Enterococcus sp.; [9]): 8 µg/mL (≈ 5.65 µM)
MIC Enterococcus faecium (GC 2243) (Enterococcus sp.; [9]): 8 µg/mL (≈ 5.65 µM)
MIC Enterococcus faecium (GC 4556) (Enterococcus sp.; [9]): 8 µg/mL (≈ 5.65 µM)
MIC Enterococcus faecium (GC 4557) (Enterococcus sp.; [9]): 4 µg/mL (≈ 2.83 µM)
MIC Streptococcus agalactiae (GC 4564) (Streptococcus sp.; [10]): 1 µg/mL (≈ 0.706 µM)
MIC Streptococcus pneumoniae (ATCC 6301) (Streptococcus sp.; [11]): 0.5 µg/mL (≈ 0.353 µM)
MIC Streptococcus pneumoniae (GC 1894) (Streptococcus sp.; [12]): <0.06 µg/mL
MIC Streptococcus pneumoniae (GC 4565) (Streptococcus sp.; [13]): 0.25 µg/mL (≈ 0.177 µM)
MIC Streptococcus pyogenes (GC 4563) (Streptococcus sp.; [14]): 1 µg/mL (≈ 0.706 µM)
MIC Streptococcus agalactiae (GC 4564) (Streptococcus sp.; [9]): 1 µg/mL (≈ 0.706 µM)
MIC Streptococcus pneumoniae (ATCC 6301) (Streptococcus sp.; [9]): 0.5 µg/mL (≈ 0.353 µM)
MIC Streptococcus pneumoniae (GC 1894) (Streptococcus sp.; [9]): <0.06 µg/mL
MIC Streptococcus pneumoniae (GC 4565) (Streptococcus sp.; [9]): 0.25 µg/mL (≈ 0.177 µM)
MIC Streptococcus pyogenes (GC 4563) (Streptococcus sp.; [9]): 1 µg/mL (≈ 0.706 µM)
MIC Escherichia coli (ATCC 25922) (Escherichia coli): 32 µg/mL (≈ 22.6 µM)
MIC Escherichia coli (GC 4559) (Escherichia coli): 32 µg/mL (≈ 22.6 µM)
MIC Escherichia coli (GC 4560) (Escherichia coli): 2 µg/mL (≈ 1.41 µM)

CC(C)=CCCC(C)=CCCC(C)=CCOc1cccc(C2OCC3OC(OC4C(CO)OC(Oc5ccc(CC6NC(=O)C(C(C)c7ccccc7)NC(=O)CNC(=O)C(CO)NC(=O)C(C(O)C7CNC(=N)N7C7OC(CO)C(O)C(O)C7O)NC(=O)C(C(O)C7CNC(=N)N7)NC6=O)cc5)C(O)C4O)C(O)C(O)C3O2)c1 (centres unmarked) [Example 185]
MIC Staphylococcus aureus (ATCC 29213) (Staphylococcus sp.): >64 µg/mL
MIC Staphylococcus aureus (GC 1131) (Staphylococcus sp.): >64 µg/mL
MIC Staphylococcus aureus (GC 3051) (Staphylococcus sp.): >64 µg/mL
MIC Staphylococcus aureus (GC 3053) (Staphylococcus sp.): >64 µg/mL
MIC Staphylococcus aureus (GC 4541) (Staphylococcus sp.): >64 µg/mL
MIC Staphylococcus aureus (GC 4542) (Staphylococcus sp.): >64 µg/mL
MIC Staphylococcus aureus-SMITH (GC 4543) (Staphylococcus sp.): >64 µg/mL
MIC Staphylococcus aureus (GC 4544) (Staphylococcus sp.): >64 µg/mL
MIC Staphylococcus aureus (GC 4545) (Staphylococcus sp.): >64 µg/mL
MIC Staphylococcus haemolyticus (GC 4546) (Staphylococcus sp.): >64 µg/mL
MIC Coagulase Negative Staphylococcus (GC 4547) (Staphylococcus sp.): >64 µg/mL
MIC Coagulase Negative Staphylococcus (GC 4548) (Staphylococcus sp.): >64 µg/mL
MIC Coagulase Negative Staphylococcus (GC 4549) (Staphylococcus sp.): >64 µg/mL
MIC Coagulase Negative Staphylococcus (GC 4551) (Staphylococcus sp.): >64 µg/mL
MIC Coagulase Negative Staphylococcus (GC 6257) (Staphylococcus sp.): >64 µg/mL
MIC Enterococcus avium (GC 4558) (Enterococcus sp.; Enterococcus avium (GC 4558)): 64 µg/mL (≈ 39.9 µM)
MIC Enterococcus faecalis (ATCC 29212) (Enterococcus sp.; [1]): >64 µg/mL
MIC Enterococcus faecalis (GC 2242) (Enterococcus sp.; [2]): >64 µg/mL
MIC Enterococcus faecalis (GC 2691) (Enterococcus sp.; [3]): >64 µg/mL
MIC Enterococcus faecalis (GC 3059) (Enterococcus sp.; [4]): >64 µg/mL
MIC Enterococcus faecalis (GC 4552) (Enterococcus sp.; [5]): >64 µg/mL
MIC Enterococcus faecalis (GC 4553) (Enterococcus sp.; [6]): 32 µg/mL (≈ 20 µM)
MIC Enterococcus faecalis (GC 4554) (Enterococcus sp.; [7]): >64 µg/mL
MIC Enterococcus faecalis (GC 6189) (Enterococcus sp.; [8]): >64 µg/mL
MIC Enterococcus faecium (GC 2243) (Enterococcus sp.; Enterococcus faecium (GC 2243)): 32 µg/mL (≈ 20 µM)
MIC Enterococcus faecium (GC 4556) (Enterococcus sp.; Enterococcus faecium (GC 4556)): >64 µg/mL
MIC Enterococcus faecium (GC 4557) (Enterococcus sp.; Enterococcus faecium (GC 4557)): >64 µg/mL
MIC Enterococcus avium (GC 4558) (Enterococcus sp.; [9]): 64 µg/mL (≈ 39.9 µM)
MIC Enterococcus faecalis (ATCC 29212) (Enterococcus sp.; [9]): >64 µg/mL
MIC Enterococcus faecalis (GC 2242) (Enterococcus sp.; [9]): >64 µg/mL
MIC Enterococcus faecalis (GC 2691) (Enterococcus sp.; [9]): >64 µg/mL
MIC Enterococcus faecalis (GC 3059) (Enterococcus sp.; [9]): >64 µg/mL
MIC Enterococcus faecalis (GC 4552) (Enterococcus sp.; [9]): >64 µg/mL
MIC Enterococcus faecalis (GC 4553) (Enterococcus sp.; [9]): 32 µg/mL (≈ 20 µM)
MIC Enterococcus faecalis (GC 4554) (Enterococcus sp.; [9]): >64 µg/mL
MIC Enterococcus faecalis (GC 6189) (Enterococcus sp.; [9]): >64 µg/mL
MIC Enterococcus faecium (GC 2243) (Enterococcus sp.; [9]): 32 µg/mL (≈ 20 µM)
MIC Enterococcus faecium (GC 4556) (Enterococcus sp.; [9]): >64 µg/mL
MIC Enterococcus faecium (GC 4557) (Enterococcus sp.; [9]): >64 µg/mL
MIC Streptococcus agalactiae (GC 4564) (Streptococcus sp.; [10]): 1 µg/mL (≈ 0.624 µM)
MIC Streptococcus pneumoniae (ATCC 6301) (Streptococcus sp.; [11]): 0.12 µg/mL (≈ 0.0748 µM)
MIC Streptococcus pneumoniae (GC 1894) (Streptococcus sp.; [12]): <0.06 µg/mL
MIC Streptococcus pneumoniae (GC 4565) (Streptococcus sp.; [13]): <0.06 µg/mL
MIC Streptococcus pyogenes (GC 4563) (Streptococcus sp.; [14]): 16 µg/mL (≈ 9.98 µM)
MIC Streptococcus agalactiae (GC 4564) (Streptococcus sp.; [9]): 1 µg/mL (≈ 0.624 µM)
MIC Streptococcus pneumoniae (ATCC 6301) (Streptococcus sp.; [9]): 0.12 µg/mL (≈ 0.0748 µM)
MIC Streptococcus pneumoniae (GC 1894) (Streptococcus sp.; [9]): <0.06 µg/mL
MIC Streptococcus pneumoniae (GC 4565) (Streptococcus sp.; [9]): <0.06 µg/mL
MIC Streptococcus pyogenes (GC 4563) (Streptococcus sp.; [9]): 16 µg/mL (≈ 9.98 µM)
MIC Escherichia coli (ATCC 25922) (Escherichia coli): >64 µg/mL
MIC Escherichia coli (GC 4559) (Escherichia coli): >64 µg/mL
MIC Escherichia coli (GC 4560) (Escherichia coli): >64 µg/mL
